Data set [1] has as its system ex vivo instilled rat lung. As to the kind of experiment: Ex vivo rat flooded lung, model of hydrostatic edema. On the procedure:
In this model edema is induced by instillating 2 ml of 0.9% NaCl solution intratracheally. Alternatively, edema formation can be modulated by varying the height of the venous outflow and the perfusion buffer containing reservoir, or alternatively by varying the time the lung is exposed to the elevated pressure. […] The clearance of alveolar fluid from the lung is calculated by means of measuring the concentration of HSA, which is added to the instillate over time. Alternatively, the over time weight loss as a measure of edema resorption (high weight loss is high liquid clearance), of the artificially instilled lung can be measured. The lung tidal volume, compliance and weight are monitored continuously during the experiment. At the end of the experiment bronchoalveolar fluid and supernatant of lung homogenate is taken for measurement of inflammatory mediators.
The lungs of female Wistar rats (weight 200–250 g; Harlan-Winkelmann, Borchen, Germany) are prepared after terminal i.p. anesthesia by 160 mg/kg pentobarbitural —Na (Merial Ltd, Halbermoos, Germany) and perfused as described by Uhlig and Wolin (1994), and by Uhlig and von Bethmann (1997). All equipment is obtained from Hugo Sachs Electronics (March-Hugstetten, Germany). […] As perfusion medium, a Krebs-Henseleit buffer (38° C.) containing 2% bovine serum albumin (Fraction V, Scrva. Heidelberg, Germany), 0.1% glucose (Riedel-de-Haën Inc., Seelze, Germany), and 0.3% HEPES (ICN Biomedicals Inc., Ohio, USA) is used. The total amount of recirculating buffer is 100 ml. The lungs are suspended by the trachea and ventilated by negative pressure ventilation (inspiratory pressure: −7 cm H2O, expiratory pressure: −2 cm H2O) with 80 breaths per minute resulting in a tidal volume of approximately 2 ml. Every 5 minutes, a deep inspiratory breath (−20 cm H2O) is performed. Artificial thorax chamber pressure is measured with a differential pressure transducer (Validyne DP 45-14), and an air flow velocity with a pneumotachograh tube (Fleisch Type 0000) connected to a differential pressure transducer (Validyne DP 45-15). The perfusate flow (Narcomatic RT-500) and the arterial and venous pressure (Statham P23BB) are continuously monitored. The pH of the perfusate before entering the lung is kept at 7.25 to 7.35 by automatic bubbling of the buffer with CO2 as soon as the pH exceeds this range. A weight transducer is integrated into the chamber lid which allows the continuous assessment of lung weight. Data are recorded on a Pentium II computer using the Mathlab Sofware package (Mathworks, Inc., Nattick Mass., USA). For lung mechanics, the data are analyzed by applying the following formula: P=1/C*VT+RLdV/dT
Where P is chamber pressure, C pulmonary compliance, VT tidal volume, and RL airway resistance. All lung physiology parameters were normalized to time point 0, i.e. after the end of the preconditioning perfusion of 40 minutes.

The test system of the next data set is isolated rat lungs. As to the kind of experiment: Isolated blood perfused flooded rat lung (weight, lung mechanics, PV curves, histology). The conditions noted are these: pretreated lungs after flooding and 2 hours reperfusion.
Data set [2] concerns lung microvascular endothelial cells. As to the kind of experiment: Whole-cell patch clamp, membrane conductance in lung microvascular endothelial cells. In kind it is cell-based, mouse. The conditions noted are these: 30 min preincubation at acidic pH (pH 6); TNF, mutTNF 100 ng/ml, peptides 100 μg/ml. An excerpt: Animals, cells and reagents. Male CBA/J or C57BL/6 mice, as well as male TNFR ½^0/0 C57BL/6 mice deficient in TNF receptors (Bruce et al., 1996) provided by H. Bluethmann, F. Hoffmann-La Roche, Basel, Switzerland, were used at the age of 8–10 weeks. Their care was in accordance with institutional guidelines. Lung microvascular endothelial cells were isolated from CBA/J mice and characterized as described (Jackson et al., 1990) using magnetic beads (Dynabeads M-450, Dynal, Oslo, Norway), covalently bound to a purified rat-anti-mouse PECAM-1 monoclonal antibody (donated by B. Imhof, University of Geneva). Microvascular lung endothelial cells were resuspended in DMEM containing 2 mM L-glutamine, 100 U/ml penicillin, […], 20% FCS, 40 U/ml heparin and […] endothelial cell growth supplement (Brunschwig Chemie, Basel, Switzerland). For patch clamp experiments, cells were plated onto 35×10 mm easy grip Petri dishes (Beckton Dickinson, Plymouth, UK), pre-coated with 0.2% gelatin (Sigma, Buchs, Switzerland). Resident peritoneal macrophages, isolated in ice cold RPMI containing antibiotics and 10 U/ml Heparin, were left to adhere onto 35×10 mm easy grip Petri dishes for 4 h, after which the non-adherent cells were removed. Cells were grown in RPMI 1640 containing 2 mM L-glutamine, 100 U/ml penicillin, 10 μpg/ml streptomycin and 10% fetal bovine serum (all from Gibco). For patch clamp, the macrophages ware used 24 h after isolation.
Electrophysiology. Cells were pretreated for 30 min with TNF, mutTNF and tip peptides at 37° C. in a buffer consisting of 145 mM NaCl, 3 mM KCl, 2mM CaCl2, 2mM MgCl2, 10 mM D-glucose, and 10mM Hepes, and pH-adjusted with NaOH to required value. Cells were then washed with the same buffer pH-adjusted at 7.3, and experiments were performed using the tight-seal, whole-cell recording technique. Currents were recorded with an Axopatch-200A amplifier (Axon Instrument Inc, Foster City, Calif., USA), low pass-filtered at 1 kHz. Digitalization and off-line analysis was performed using the WCP program (J. Dempster, Strathclyde Electrophysiology Software, Glasgow, UK). Patch pipettes were pulled from borosilicate glass and fire polished to have an open resistance of 3–5 MW with an internal solution containing […], 2 mM MgCl2, 10mM EGTA, 20 mM TEA-Cl, 10 mM D-glucose 10 mM Hepes, pH-adjusted to 7.3 with CsOH. Series resistances were kept under 10 MW. Capacitance and series resistance compensation were applied and set to 70%. All experiments were done at room temperature. Results are given as mean ±SEM, unless otherwise indicated. Analysis of variance was performed on currents and membrane conductance values, with post-hoc Dunn-Bonferroni test for significance of differences observed between two groups. A P value of 0.05 was considered significant.
In general terms: In patch-clamp work, channel activity is measured electrically.

[3] abbreviates: measured 80 minutes after instillation, summary in words.

Where “and” joins values, the source holds several entries; their conditions need not be identical. Equal entries are not always repeated. Positions of bridges follow the written chain, without caps; N, C: chain ends. Residues, ends and D or L forms follow the SMILES beside them. No end group written: not given here. *: point of attachment. Biotin = O=C1N[C@H]2[C@H](CS[C@H]2CCCCC(=O)*)N1

Protocol for isolated rat lungs: Rats. For the ex vivo experiments, 31 Sprague-Dawley rats (300 to 350 g) were tracheotomized and mechanically ventilated (40% oxygen in air) under isoflurane anesthesia. The experimental protocol was reviewed and approved by the Ethics Committee for Animal Research and by the Veterinary Office of our institution. The femoral vessels were cannulated for blood sampling, fluid replacement, and continuous arterial blood pressure monitoring. Following anticoagulation (1.5 IU/g i.v. heparin), 20 ml of blood were withdrawn and replaced by an equal volume of dextran-40 (Macrodex 10% in normosaline) to serve as priming volume for the isolated perfusion circuit. The heart-lung block was prepared as described by Ma et al., 2000, weighed and assigned to one of four groups. […] The lungs were suspended, mechanically ventilated, and perfused at constant pressure with autologous blood as described by Ma et al., 2000.
An inspiratory and expiratory quasi-static pressure-volume (PV) curve was performed at the end of the 2-hour reperfusion period by inflating and then deflating the lungs at a constant rate (0.3 ml/sec) using an automated infusion pump. A sigh was applied in all groups every 15 minutes to minimize atelectasis formation. The blood pH was maintained between 7.3 and 7.5 and, if necessary, corrected with sodium bicarbonate 8.4% or a change of the inspired CO2 as required by the blood gas analysis. Every 30 minutes, a blood sample was collected for blood gas analysis as well as for hematocrit and electrolyte concentration.
Inclusion criteria. Immediately following the start of reperfusion, the preparation had to fulfill three technical inclusion criteria: • 1) left atrial pressure (LAP) 5-10 mmHg; • 2) peak airway pressure (AWP) <15 cmH2O; and • 3) pulmonary blood flow (PBF) >10 ml/min. […] The included lungs were then flooded with gentle intratracheal instillation of 2 ml normal saline and the recorded variables measured for 2 subsequent hours.
Histological analysis. Random lung samples were fixed for light and electron microscopy and analyzed by pathologists blinded to the lung's protocol group assignment.

With `CC(C)(C)NCC(O)c1cc(O)cc(O)c1` (centres unmarked) [Terbutaline, reference compound], the “Weight loss of ex vivo instilled rat lung over 80 min” value (“Weight loss … over 80 min” below) in data set [1] (Terbutalin 1 mM alone, individual lungs) was 1035 mg and 872 mg and 1219 mg and 1119 mg and 822 mg and 1075 mg and 675 mg and 730 mg and 1000 mg and 923 mg and 880 mg and 702 mg. Moreover, the “Weight loss of ex vivo instilled rat lung over 100 min” value in data set [1] (Terbutaline 1 mM + Chitobiose 500 μg) was 800 mg; in data set [1] (Terbutaline 1 mM alone, individual lungs), 805 mg and 1223 mg and 1425 mg and 1370 mg. The “clearing alveolar fluid content ex vivo” value in data set [1] (after intratracheal instillation, summary in words) is recorded as “capable of clearing alveolar fluid content”.
`CC(C)C[C@@H]1NC(=O)[C@H](CCC(=O)O)NC(=O)[C@H](Cc2c[nH]c3ccccc23)NC(=O)[C@@H]2CCCN2C(=O)[C@H](CCCCN)NC(=O)[C@H]([C@@H](C)O)NC(=O)CNC(=O)[C@@H](N)CSSC[C@@H](C(=O)O)NC(=O)[C@H](Cc2ccc(O)cc2)NC(=O)[C@H](C)NC(=O)[C@@H]2CCCN2C(=O)[C@H](CCCCN)NC(=O)[C@H](CCC(=O)O)NC(=O)[C@H](CC(=O)O)NC(=O)[C@@H]2CCCN2C(=O)CNC1=O` [cyclic mu scrambl Tip, reference compound] (H-CGTKPWELGPDEKPAYC-OH; disulfide 1-17): in the data set on isolated rat lungs, the “endothelial flaps and epithelial blebs (electron microscopy)” value was “less evident”.
With “CGQRETPEGAEAKPWY (Biotin-CGQRETPEGAEAKPWY) [linear hum Ltip]”, the “activity in fluid clearance” value in data set [1] (setting [3]) is reported as “equally active”; in data set [1] (measuring for 100 minutes after instillation, summary in words) it was “less active”. In addition, the “Weight loss … over 80 min” value in data set [1] (synthetic peptide 1000 μg/lung) was 498 mg and 863 mg and 585 mg and 462 mg.
Regarding “CTPEGAEC (Biotin-CTPEGAEC; cysteine pairing not given here; listed as Mus musculus) [STip]”, the “whole cell current / membrane conductance” value in data set [2] was “failed to induce a voltage-dependent current”. Further, the “activity in fluid clearance” value in data set [1] (setting [3]) is on record as “equally active”. Besides, in data set [1] (synthetic peptide 1000 μg/lung), the “Weight loss … over 80 min” value is 507 mg and 607 mg and 781 mg and 703 mg and 744 mg; the “Weight loss of ex vivo instilled rat lung over 100 min” value was 836 mg and 535 mg and 684 mg and 891 mg and 849 mg.
In the case of “GG-CCIPKDAPAGAALKPWYC [mutTip, reference compound]”, the “whole cell current / membrane conductance” value in data set [2] is “inactive”.
The same measure, in the same setting: the result for “GG-COTKPWELOPDEKPAYC [scramblTip, reference compound]” reads “inactive”.

Values taken from patent US7258861B2, “TNF-derived peptides for use in treating oedema” (Innogenetics N.V., priority 2001, dated 2007).
